What follows are molecules tested against T1, SARM1 (50-724) (Homo sapiens, UniProt Q6SZW1) (assay: biochemical).
T1 sequence (Q6SZW1 50-724): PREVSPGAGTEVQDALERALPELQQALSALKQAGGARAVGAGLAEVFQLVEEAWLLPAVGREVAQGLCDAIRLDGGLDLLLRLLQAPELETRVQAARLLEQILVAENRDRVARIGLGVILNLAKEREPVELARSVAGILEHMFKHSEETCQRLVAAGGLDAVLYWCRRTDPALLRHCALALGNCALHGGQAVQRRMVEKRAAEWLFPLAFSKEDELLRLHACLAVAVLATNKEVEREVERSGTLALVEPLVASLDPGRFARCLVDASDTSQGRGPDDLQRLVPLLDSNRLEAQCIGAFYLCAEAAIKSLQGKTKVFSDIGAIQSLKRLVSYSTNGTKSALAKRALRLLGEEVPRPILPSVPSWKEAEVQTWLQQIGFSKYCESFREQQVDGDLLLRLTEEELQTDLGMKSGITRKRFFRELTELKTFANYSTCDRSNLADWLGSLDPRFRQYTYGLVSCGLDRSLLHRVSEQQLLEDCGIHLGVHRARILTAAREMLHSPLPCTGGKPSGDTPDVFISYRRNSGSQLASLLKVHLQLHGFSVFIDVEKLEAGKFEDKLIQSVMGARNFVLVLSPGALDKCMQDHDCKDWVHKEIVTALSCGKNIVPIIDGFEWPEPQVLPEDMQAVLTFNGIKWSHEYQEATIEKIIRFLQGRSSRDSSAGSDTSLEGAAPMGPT
Protocol: An enzymatic assay was performed in a 384-well plate using Dulbecco's phosphate-buffered saline (PBS) as the reaction buffer. […] The reaction was initiated by adding a mixture of 200 μM nicotinamide mononucleotide (NMN) as activator and 100 μM NAD^+ as substrate. After 1 h of incubation at room temperature, the reaction was terminated with 10 times volume of 70% acetonitrile, then centrifuged at 3800 rpm for 10 min.

IC50 [µM] | Compound
< 0.1 | CC(Nc1ccc2nc[nH]c(=O)c2n1)c1ccc(F)c(Cl)c1Cl (single isomer, unassigned) [Compound 386]
< 0.1 | CC(Nc1ccc2nc[nH]c(=O)c2n1)c1c(F)ccc(Cl)c1Cl (single isomer, unassigned) [Compound 387]
> 1 | CC(Nc1ccc2nc[nH]c(=O)c2n1)c1c(F)ccc(Cl)c1Cl (single isomer, unassigned) [Compound 388]
> 1 | Cc1c2c(F)cc(NC(C)c3nc(Cl)c(Cl)s3)cc2nn1CC(N)=O (single isomer, unassigned) [Compound 390]
< 0.1 | Cc1c2c(F)cc(NC(C)c3nc(Cl)c(Cl)s3)cc2nn1CC(N)=O (single isomer, unassigned) [Compound 391]
0.5 to 1 | COc1nccc(C(C)Nc2ccc3c(c2)C(=O)NCC3)c1Cl (single isomer, unassigned) [Example 95]
< 0.1 | CC(Nc1ccc2c(c1)C(=O)NCC2)c1cccc(Cl)c1Cl (single isomer, unassigned) [Example 111]
0.5 to 1 | CC(Nc1ccc2nc[nH]c(=O)c2c1)c1cccc(Cl)c1Cl (single isomer, unassigned) [Example 152A]
< 0.1 | CC(Nc1ccc2nc[nH]c(=O)c2c1)c1cccc(Cl)c1Cl (single isomer, unassigned) [Example 152]
< 0.1 | C[C@@H](Nc1ccc2cc[nH]c(=O)c2c1)c1nccc(Cl)c1Cl (single isomer, unassigned) [Example 194A, (S or R)-7-((1-(3,4-dichloropyridin-2-yl)ethyl)amino)isoquinolin-1(2H)-one]
> 1 | CC(Nc1ccc2cc[nH]c(=O)c2c1)c1nccc(Cl)c1Cl (single isomer, unassigned) [Example 194B]
> 1 | CC(Nc1ccc2nc[nH]c(=O)c2c1)c1c(Cl)ccc(F)c1Cl (single isomer, unassigned) [Example 201A]
< 0.1 | CC(Nc1ccc2nc[nH]c(=O)c2c1)c1c(Cl)ccc(F)c1Cl (single isomer, unassigned) [Example 201]
0.5 to 1 | Cc1n[nH]c(=O)c2cc(N[C@H](C)c3c(Cl)ccc(F)c3Cl)ccc12 (single isomer, unassigned) [Example 237A]
< 0.1 | Cc1n[nH]c(=O)c2cc(N[C@@H](C)c3c(Cl)ccc(F)c3Cl)ccc12 (single isomer, unassigned) [Example 237]
< 0.1 | Cc1n[nH]c(=O)c2cc(N[C@@H](C)c3nc(Cl)c(Cl)s3)ccc12 (single isomer, unassigned) [Example 239A]
> 1 | Cc1n[nH]c(=O)c2cc(NC(C)c3nc(Cl)c(Cl)s3)ccc12 (single isomer, unassigned) [Example 239B]
> 1 | CC(Nc1cc(F)c2ncn(-c3ccn[nH]3)c(=O)c2c1)c1nc(Cl)c(Cl)s1 (single isomer, unassigned) [Example 356A]
< 0.1 | CC(Nc1cc(F)c2ncn(-c3ccn[nH]3)c(=O)c2c1)c1nc(Cl)c(Cl)s1 (single isomer, unassigned) [Example 356]
< 0.1 | CC(Nc1cc(F)c2ncn(-c3cn[nH]c3)c(=O)c2c1)c1nc(Cl)c(Cl)s1 (single isomer, unassigned) [Example 374]

The next lines start with the molecule.

Compound | IC50 [µM]
Cc1sc(C(C)Nc2ccc3c(C)n(CC(N)=O)nc3c2)nc1Cl (single isomer, unassigned) [Compound 380] | < 0.1
Cc1sc(C(C)Nc2ccc3c(C)n(CC(N)=O)nc3c2)nc1Cl (single isomer, unassigned) [Compound 381] | > 1
CC(Nc1ccc2nc[nH]c(=O)c2n1)c1c(Cl)ccc(F)c1Cl (single isomer, unassigned) [Compound 382] | < 0.1
CC(Nc1ccc2nc[nH]c(=O)c2n1)c1c(Cl)ccc(F)c1Cl (single isomer, unassigned) [Compound 383] | > 1
CC(Nc1ccc2nc[nH]c(=O)c2n1)c1ccc(F)c(Cl)c1Cl (single isomer, unassigned) [Compound 385] | > 1
Cc1c2ccc(NC(C)c3nc(Cl)c(Cl)s3)cc2nn1[C@@H]1CC[C@@H](O)C1 (stereo in doubt) [Compound 335, 3-(6-((1-(4,5-dichlorothiazol-2-yl)ethyl)amino)-3-methyl-2H-indazol-2-yl)cyclopentan-1-ol] | < 0.1
Cc1c2ccc(NC(C)c3nc(Cl)c(Cl)s3)cc2nn1[C@@H]1CC[C@H](O)C1 (stereo in doubt) [Compound 336, 3-(6-((1-(4,5-dichlorothiazol-2-yl)ethyl)amino)-3-methyl-2H-indazol-2-yl)cyclopentan-1-ol] | < 0.1
Cc1ccc(Cl)c(S(=O)(=O)Nc2ccc3c(c2)C(=O)NCC3)c1Cl [Compound 2, 2,6-dichloro-3-methyl-N-(1-oxo-3,4-dihydro-2H-isoquinolin-7-yl)benzenesulfonamide] | < 0.1
Cc1c(F)cccc1S(=O)(=O)Nc1ccc2c(c1)NC(=O)CC2 [Compound 3, 3-fluoro-2-methyl-N-(2-oxo-1,2,3,4-tetrahydroquinolin-7-yl)benzenesulfonamide] | 0.1 to 0.5
Cc1c(F)cccc1S(=O)(=O)Nc1ccc2c(c1)CN(C(=O)OC(C)(C)C)CC2 [Compound 4] | > 1
Cc1c(F)cccc1S(=O)(=O)Nc1ccc2c(c1)C(=O)OCC2 [Compound 5, 3-fluoro-2-methyl-N-(1-oxoisochroman-7-yl)benzenesulfonamide] | > 1
Cc1c(F)cccc1S(=O)(=O)Nc1ccc2c(c1)C(=O)NCCC2 [Compound 6, 3-fluoro-2-methyl-N-(1-oxo-2,3,4,5-tetrahydro-1H-benzo[c]azepin-8-yl)benzenesulfonamide] | 0.1 to 0.5
Cc1c(F)cccc1S(=O)(=O)Nc1ccc2c(c1)CC(=O)NC2 [Compound 7, 3-fluoro-2-methyl-N-(3-oxo-1,2,3,4-tetrahydroisoquinolin-6-yl)benzenesulfonamide] | > 1
Cc1c(F)cccc1S(=O)(=O)Nc1ccc2c(c1)CCC(=O)N2 [Compound 8, 3-fluoro-2-methyl-N-(2-oxo-1,2,3,4-tetrahydroquinolin-6-yl)benzenesulfonamide] | > 1
Cc1ccccc1S(=O)(=O)Nc1ccc2c(c1)C(=O)NCC2 [Compound 9, 2-methyl-N-(1-oxo-1,2,3,4-tetrahydroisoquinolin-7-yl)benzenesulfonamide] | > 1
Cc1ccc(F)cc1S(=O)(=O)Nc1ccc2c(c1)C(=O)NCC2 [Compound 10, 5-fluoro-2-methyl-N-(1-oxo-1,2,3,4-tetrahydroisoquinolin-7-yl)benzenesulfonamide] | > 1
O=S(=O)(Nc1ccc2cc[nH]c2c1)c1cccc(Cl)c1Cl [Compound 11, 2,3-dichloro-N-(1H-indol-6-yl)benzenesulfonamide] | < 0.1
O=C1NCCc2ccc(NS(=O)(=O)c3cc(F)cc(Br)c3)cc21 [Compound 12, 3-bromo-5-fluoro-N-(1-oxo-1,2,3,4-tetrahydroisoquinolin-7-yl)benzenesulfonamide] | > 1
Cc1c(Br)cccc1S(=O)(=O)Nc1ccc2c(c1)C(=O)NCC2 [Compound 13, 3-bromo-2-methyl-N-(1-oxo-1,2,3,4-tetrahydroisoquinolin-7-yl)benzenesulfonamide] | < 0.1
Cc1c(F)cccc1S(=O)(=O)Nc1ccc2c(c1)CCCC2 [Compound 14, 3-fluoro-2-methyl-N-(5,6,7,8-tetrahydronaphthalen-2-yl)benzenesulfonamide] | 0.5 to 1
Cc1c(F)cccc1S(=O)(=O)Nc1ccc2cc[nH]c(=O)c2c1 [Compound 15, 3-fluoro-2-methyl-N-(1-oxo-1,2-dihydroisoquinolin-7-yl)benzenesulfonamide] | < 0.1
Cc1ccnc2cc(NS(=O)(=O)c3cccc(Cl)c3Cl)ccc12 [Compound 16, 2,3-dichloro-N-(4-methylquinolin-7-yl)benzenesulfonamide] | 0.1 to 0.5
Cc1cccc(C)c1S(=O)(=O)Nc1ccc2c(c1)C(=O)NCC2 [Compound 18, 2,6-dimethyl-N-(1-oxo-1,2,3,4-tetrahydroisoquinolin-7-yl)benzenesulfonamide] | 0.5 to 1
CC1Cc2ccc(NS(=O)(=O)c3cccc(Cl)c3Cl)cc2C(=O)N1 (stereo not drawn) [Compound 19, 2,3-dichloro-N-(3-methyl-1-oxo-1,2,3,4-tetrahydroisoquinolin-7-yl)benzenesulfonamide] | 0.1 to 0.5
O=C1NCCc2ccc(NS(=O)(=O)c3cccc(Cl)c3Cl)cc21 [Compound 20, 2,3-dichloro-N-(1-oxo-1,2,3,4-tetrahydroisoquinolin-7-yl)benzenesulfonamide] | < 0.1
Cc1c(F)cccc1S(=O)(=O)Nc1ccc2c(c1)C(=O)N(C)CC2 [Compound 21, 3-fluoro-2-methyl-N-(2-methyl-1-oxo-1,2,3,4-tetrahydroisoquinolin-7-yl)benzenesulfonamide] | 0.1 to 0.5
O=c1[nH]ccc2ccc(NS(=O)(=O)c3cccc(Cl)c3Cl)cc12 [Compound 22, 2,3-dichloro-N-(1-oxo-1,2-dihydroisoquinolin-7-yl)benzenesulfonamide] | < 0.1
O=c1[nH]cnc2ccc(NS(=O)(=O)c3cccc(Cl)c3Cl)cc12 [Compound 23, 2,3-dichloro-N-(4-oxo-3,4-dihydroquinazolin-6-yl)benzenesulfonamide] | 0.1 to 0.5
